Results published in publication PMC9161374 (Science Translational Medicine, 2022).
“And” between values parts separate entries of the source, which are not always exact repeats. Identical values can stand only once.

What was measured:
[1] = tested on: SARS-CoV-2 replicon system (pBAC-SARS-CoV-2-Replicon-Luc); test: microbe, parasite or virus in culture; format: cell-based; settings: Severe acute respiratory syndrome coronavirus 2, HEK-293T, 60 h
SARS-CoV-2 (B.1) = test: Anti-SARS-CoV-2 activity in Vero E6 cells (viral yield by qRT-PCR); format: cell-based
[2] = tested on: SARS-CoV-2 (Beta, B.1.351); test: microbe, parasite or virus in culture; format: cell-based; settings: for % Inhibition: beta
[3] = tested on: SARS-CoV-2 (Delta, B.1.617.2); test: microbe, parasite or virus in culture; format: cell-based; settings: for % Inhibition: delta
[4] = tested on: SARS-CoV-2 (B.1) in Huh7 cells; test: Anti-SARS-CoV-2 activity in Huh7 cells (viral yield by qRT-PCR); format: cell-based; settings: B.1, MOI 0.05, 48 h
[5] = CCK-8 cell viability assay; format: cell-based, African green monkey; settings: African green monkey; Vero E6 cells, 48 h, CCK8
How it was run: (§1)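 Vero E6 cells, 20,000/well, exposed to compound at 0–200 μM (0, 0.01, 0.1, 1, 5, 10, 50, 75, 100, 200 μM) for 48 h; viability read by CCK-8 and expressed as percentage versus drug concentration, mean ± SD.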

Vero E6 cells = test: CCK-8 cell viability assay; format: cell-based, African green monkey; settings: individual replicate values, Fig.S4
How it was run: as §1

In the case of `N#C[C@@]1(c2ccc3c(N)ncnn23)O[C@H](COC(=O)c2ccccc2)[C@@H](O)[C@H]1O` [ATV013], the EC50 ([1]; read-out: EC50 (Confidence 95%), replicon) is reported as 0.497 µM, the EC90 ([1]; read-out: EC90 (Confidence 95%), replicon) is reported as 1.14 µM and the “% Inhibition” value (SARS-CoV-2 (B.1); 0.1 μM, replicates, sheet Fig.S3) is reported as 0%. For the same compound, the “% Inhibition” value (SARS-CoV-2 (B.1); 0.5 μM, replicates, sheet Fig.S3) was 0%, the “% Inhibition” value (SARS-CoV-2 (B.1); 1 μM, replicates, sheet Fig.S3) was 54.9033% and the “% Inhibition” value (SARS-CoV-2 (B.1); 2 μM, replicates, sheet Fig.S3) was 83.4601%. The “% Inhibition” value (SARS-CoV-2 (B.1); 5 μM, replicates, sheet Fig.S3) was 91.8254%, the “% Inhibition” value (SARS-CoV-2 (B.1); 10 μM, replicates, sheet Fig.S3) was 91.2053% and the “% Inhibition” value (SARS-CoV-2 (B.1); B.1, 0.01 uM, Vero E6, replicates) was 0%. For the same compound, the “% Inhibition” value (SARS-CoV-2 (B.1); B.1, 0.1 uM, Vero E6, replicates) was 0%, the “% Inhibition” value (SARS-CoV-2 (B.1); B.1, 0.25 uM, Vero E6, replicates) was 0% and the “% Inhibition” value (SARS-CoV-2 (B.1); B.1, 0.5 uM, Vero E6, replicates) was 0%. The “% Inhibition” value (SARS-CoV-2 (B.1); B.1, 1 uM, Vero E6, replicates) was 0%, the “% Inhibition” value (SARS-CoV-2 (B.1); B.1, 5 uM, Vero E6, replicates, 5 µM) was 99.7536% and the “% Inhibition” value (SARS-CoV-2 (B.1); B.1, 10 uM, Vero E6, replicates, 10 µM) was 99.9918%. For the same compound, the “% Inhibition” value (SARS-CoV-2 (B.1); B.1, 50 uM, Vero E6, replicates, 50 µM) was 99.9922%, the inhibition at 0.1 µM (SARS-CoV-2 (B.1); Severe acute respiratory syndrome coronavirus 2, Vero C1008, 0.1 μM, replicates, sheet Fig.S3) was 0% and the inhibition at 0.5 µM (SARS-CoV-2 (B.1); Severe acute respiratory syndrome coronavirus 2, Vero C1008, 0.5 μM, replicates, sheet Fig.S3) was 0%. For the same compound, the inhibition at 1 µM (SARS-CoV-2 (B.1); Severe acute respiratory syndrome coronavirus 2, Vero C1008, 1 μM, replicates, sheet Fig.S3) was 62%, the inhibition at 2 µM (SARS-CoV-2 (B.1); Severe acute respiratory syndrome coronavirus 2, Vero C1008, 2 μM, replicates, sheet Fig.S3) was 83.8% and the inhibition at 5 µM (SARS-CoV-2 (B.1); Severe acute respiratory syndrome coronavirus 2, Vero C1008, 5 μM, replicates, sheet Fig.S3) was 93.6%. It also gave an inhibition at 10 µM (SARS-CoV-2 (B.1); Severe acute respiratory syndrome coronavirus 2, Vero C1008, 10 μM, replicates, sheet Fig.S3) of 93.5%, an inhibition at 0.01 µM (SARS-CoV-2 (B.1); Severe acute respiratory syndrome coronavirus 2, Vero C1008, B.1, 0.01 uM, Vero E6, replicates) of 0% and an inhibition at 0.1 µM (SARS-CoV-2 (B.1); Severe acute respiratory syndrome coronavirus 2, Vero C1008, B.1, 0.1 uM, Vero E6, replicates) of 0%. The inhibition at 0.25 µM (SARS-CoV-2 (B.1); Severe acute respiratory syndrome coronavirus 2, Vero C1008, B.1, 0.25 uM, Vero E6, replicates) was 0%, the inhibition at 0.5 µM (SARS-CoV-2 (B.1); Severe acute respiratory syndrome coronavirus 2, Vero C1008, B.1, 0.5 uM, Vero E6, replicates) was 0% and the inhibition at 1 µM (SARS-CoV-2 (B.1); Severe acute respiratory syndrome coronavirus 2, Vero C1008, B.1, 1 uM, Vero E6, replicates) was 0%. The inhibition at 5 µM (SARS-CoV-2 (B.1); Severe acute respiratory syndrome coronavirus 2, Vero C1008, B.1, 5 uM, Vero E6, replicates) was 99.5%, the inhibition at 10 µM (SARS-CoV-2 (B.1); Severe acute respiratory syndrome coronavirus 2, Vero C1008, B.1, 10 uM, Vero E6, replicates) was 100% and the inhibition at 50 µM (SARS-CoV-2 (B.1); Severe acute respiratory syndrome coronavirus 2, Vero C1008, B.1, 50 uM, Vero E6, replicates) was 100%. It also gave an EC90 (SARS-CoV-2 (B.1); Severe acute respiratory syndrome coronavirus 2, Vero C1008, read-out: EC90 (Confidence 95%)) of 2.87 µM, an EC50 (SARS-CoV-2 (B.1); Severe acute respiratory syndrome coronavirus 2, Vero C1008, MOI 0.05, 48 h) of 2.26 µM and an EC50 ([2]; Severe acute respiratory syndrome coronavirus 2, Vero C1008, 48 h, read-out: EC50 in Vero E6 cells, SARS-CoV-2 (Beta, B.1.351)) of 2.43 µM. It also gave an inhibition at 0.01 µM ([2]; Severe acute respiratory syndrome coronavirus 2, Vero C1008, beta, 0.01 uM, Vero E6, replicates) of 0%, an inhibition at 0.1 µM ([2]; Severe acute respiratory syndrome coronavirus 2, Vero C1008, beta, 0.1 uM, Vero E6, replicates) of 0% and an inhibition at 0.25 µM ([2]; Severe acute respiratory syndrome coronavirus 2, Vero C1008, beta, 0.25 uM, Vero E6, replicates) of 0%. It also gave an inhibition at 0.5 µM ([2]; Severe acute respiratory syndrome coronavirus 2, Vero C1008, beta, 0.5 uM, Vero E6, replicates) of 0%, an inhibition at 1 µM ([2]; Severe acute respiratory syndrome coronavirus 2, Vero C1008, beta, 1 uM, Vero E6, replicates) of 0% and an inhibition at 2 µM ([2]; Severe acute respiratory syndrome coronavirus 2, Vero C1008, beta, 2 uM, Vero E6, replicates) of 23.7%. The inhibition at 5 µM ([2]; Severe acute respiratory syndrome coronavirus 2, Vero C1008, beta, 5 uM, Vero E6, replicates) was 99.7%, the inhibition at 10 µM ([2]; Severe acute respiratory syndrome coronavirus 2, Vero C1008, beta, 10 uM, Vero E6, replicates) was 99.9% and the inhibition at 50 µM ([2]; Severe acute respiratory syndrome coronavirus 2, Vero C1008, beta, 50 uM, Vero E6, replicates) was 99.9%. For the same compound, the EC90 ([2]; Severe acute respiratory syndrome coronavirus 2, Vero C1008, read-out: EC90 (Confidence 95%), Vero-E6, Beta B.1.351) was 3.09 µM, the “% Inhibition” value ([2]; 0.01 uM, Vero E6, replicates) was 0% and the “% Inhibition” value ([2]; 0.1 uM, Vero E6, replicates) was 0%. The “% Inhibition” value ([2]; 0.25 uM, Vero E6, replicates) was 0%, the “% Inhibition” value ([2]; 0.5 uM, Vero E6, replicates) was 0% and the “% Inhibition” value ([2]; 1 uM, Vero E6, replicates) was 0%. For the same compound, the “% Inhibition” value ([2]; 2 uM, Vero E6, replicates) was 12.3832%, the “% Inhibition” value ([2]; 5 uM, Vero E6, replicates) was 99.5222% and the “% Inhibition” value ([2]; 10 uM, Vero E6, replicates) was 99.9634%. The “% Inhibition” value ([2]; 50 uM, Vero E6, replicates) was 99.9455%, the EC50 ([3]; Severe acute respiratory syndrome coronavirus 2, Vero C1008, 48 h, read-out: EC50 in Vero E6 cells, SARS-CoV-2 (Delta, B.1.617.2)) was 0.965 µM and the inhibition at 0.01 µM ([3]; Severe acute respiratory syndrome coronavirus 2, Vero C1008, delta, 0.01 uM, Vero E6, replicates) was 0%. It also gave an inhibition at 0.1 µM ([3]; Severe acute respiratory syndrome coronavirus 2, Vero C1008, delta, 0.1 uM, Vero E6, replicates) of 0%, an inhibition at 0.25 µM ([3]; Severe acute respiratory syndrome coronavirus 2, Vero C1008, delta, 0.25 uM, Vero E6, replicates) of 0% and an inhibition at 1 µM ([3]; Severe acute respiratory syndrome coronavirus 2, Vero C1008, delta, 1 uM, Vero E6, replicates) of 50.4%. For the same compound, the inhibition at 2 µM ([3]; Severe acute respiratory syndrome coronavirus 2, Vero C1008, delta, 2 uM, Vero E6, replicates) was 93.4%, the inhibition at 5 µM ([3]; Severe acute respiratory syndrome coronavirus 2, Vero C1008, delta, 5 uM, Vero E6, replicates) was 96.1% and the inhibition at 10 µM ([3]; Severe acute respiratory syndrome coronavirus 2, Vero C1008, delta, 10 uM, Vero E6, replicates) was 99.7%. For the same compound, the inhibition at 50 µM ([3]; Severe acute respiratory syndrome coronavirus 2, Vero C1008, delta, 50 uM, Vero E6, replicates) was 100%, the EC90 ([3]; Severe acute respiratory syndrome coronavirus 2, Vero C1008, read-out: EC90 (Confidence 95%), Vero-E6, Delta B.1.617.2) was 1.41 µM and the “% Inhibition” value ([3]; 0.01 uM, Vero E6, replicates) was 0%. The “% Inhibition” value ([3]; 0.1 uM, Vero E6, replicates) was 0%, the “% Inhibition” value ([3]; 0.25 uM, Vero E6, replicates) was 0% and the “% Inhibition” value ([3]; 0.5 uM, Vero E6, replicates) was 0.1843% and 0%. The “% Inhibition” value ([3]; 1 uM, Vero E6, replicates) was 60.4565%, the “% Inhibition” value ([3]; 2 uM, Vero E6, replicates) was 90.993% and the “% Inhibition” value ([3]; 5 uM, Vero E6, replicates) was 93.9334%. For the same compound, the “% Inhibition” value ([3]; 10 uM, Vero E6, replicates) was 98.4346%, the “% Inhibition” value ([3]; 50 uM, Vero E6, replicates) was 99.9058% and the EC50 ([4]; Severe acute respiratory syndrome coronavirus 2, Huh-7, read-out: EC50 (Confidence 95%) in Huh7 cells) was 0.964 µM. The EC90 ([4]; Severe acute respiratory syndrome coronavirus 2, Huh-7, read-out: EC90 (Confidence 95%) in Huh7 cells) was 1.32 µM, the CC50 at 48 h [5] was > 50 µM and the “cell viability (% of control)” value (Vero E6 cells; 1 μM compound, 1 µM) was 66.6435 % of control and 71.881 % of control and 81.6609 % of control. The “cell viability (% of control)” value (Vero E6 cells; 2 μM compound, 2 µM) was 62.1939 % of control and 100.479 % of control and 98.8104 % of control, the “cell viability (% of control)” value (Vero E6 cells; 5 μM compound, 5 µM) was 79.1116 % of control and 101.73 % of control and 106.643 % of control and the “cell viability (% of control)” value (Vero E6 cells; 10 μM compound, 10 µM) was 79.4361 % of control and 86.4349 % of control and 92.6458 % of control. For the same compound, the “cell viability (% of control)” value (Vero E6 cells; 20 μM compound, 20 µM) was 76.9332 % of control and 94.4535 % of control and 115.728 % of control and the “cell viability (% of control)” value (Vero E6 cells; 50 μM compound, 50 µM) was 73.9991 % of control and 102.436 % of control and 88.29 % of control.
